Measured values reported in patent US20250320207A1, “Ketal Protected Intermediate for Sonrotoclax and Preparation Method Thereof” (priority 2022, published 2025).

Experimental: The sample was tested by GC (carrier gas: N2) and HPLC (Column: Waters Xselect HSS T3 (150 mm*4.6 mm, 3.5 um) P/N: 186004786; mobile phase 0.05% TFA in water, ACN:MeOH=1:1, v/v; Flow: 1 ml/min; Temperature: 30° C.).

C1COC2(CC3(CCNCC3)C2)OC1.Cl [1,5-dioxa-11-azadispiro[5.1.5.1]tetradecane hydrogen chloride]
storage stability (result in words): stable enough | Product, Impurity profile (RRT, Area %), RRT 1.00 (stored at 2-8° C. for 3.5 months, double layered LDPE bag with desiccant inside heat-sealed aluminum foil bag, GC and HPLC): 99.90 Area %
